# Results reported in article PMC11013143, “4-Chloroisocoumarins as Chlamydial Protease Inhibitors and Anti-Chlamydial Agents” (Molecules, 2024).
# Assays:
# [1] = tested on: C. trachomatis; assay: Chlamydia trachomatis growth inhibition assay in HEp-2 host cells; type: cell-based; settings: 62.5 µM; for anti-chlamydial activity against C. trachomatis: 30 h post infection, HEp-2 host cells
# Procedure: The workflow for the evaluation of chlamydial growth inhibition is described in the supplementary information (Figure S6). Briefly, HEp-2 cells were seeded in a 96-well plate and grown for 24 h; they were then infected with a fixed quantity of C. trachomatis. The infection was propagated for 4 h, and then a mixture of test compound and cycloheximide was added and the plate was incubated for a further 26 h (30 h post infection). The cells were fixed with methanol and then stained with fluorescent antibodies to visualize chlamydial inclusions, and the growth was measured using inclusion counts relative to vehicle controls.
# HEp-2 cells were grown until confluent in a T-75 flask with DMEM (containing 10% FCS, gentamycin (0.05 mg/mL), streptomycin (0.1 mg/mL) and glutamine (Sigma-Aldrich Cat No. G7513, 4 mM); they were then harvested with trypsin, and the cell density was determined with a haemocytometer. Cells were diluted to 1 × 10^5 cells/mL, and 200 µL was dispensed to each well in a 96-well plate and then incubated for 24 h at 5% CO2 at 37 °C.
# The supernatant was removed, and 100 µL of the respective chlamydia species in media (100,000 IFU/mL) was added, giving an MOI of 0.5. The plate was sealed and centrifuged at 500× g/28 °C for 30 min and then incubated for a further 3.5 h at 37 °C with 5% CO2. The supernatant was removed, and 100 µL of cycloheximide in DMEM (1 µg/mL) was added in addition to 100 µL of drug stock solution to each respective well with DMSO and media negative controls and also azithromycin positive control. The plate was incubated for a further 26 h.
# The supernatant was removed, and wells were washed with PBS (2 × 150 µL) and then fixed in methanol for eight minutes. The methanol was removed and washed with additional PBS (2 × 150 µL) and stored at 4 °C with 100 µL PBS per well and then stained and analyzed using fluorescence microscopy, which is outlined below.
# Cells in fixed plates were permeabilized with 0.5% Triton X-100 in PBS for 15 min and then blocked with 1% BSA in PBS for 45 min. Anti-HtrA polyclonal antibody (sera) (1:600) (in-house), anti-mouse tubulin (Sigma-Aldrich Cat no. T-5168, 1:3000) and DAPI (125 ng/mL) in PBS were added to each well (70 µL) and then gently shaken at room temperature while shielding it from light for 45 min. The primary antibodies were removed, and the wells were washed with PBS (4 × 150 µL). Secondary antibodies (goat anti-rabbit Alexafluor 488, Thermo Fisher Cat No. A-11008 and goat anti-mouse Alexafluor 568 (Thermo Fisher Cat No. A-11004)) in PBS (70 µL, 1:600 respectively) were added and the wells were gently shaken at room temperature while shielding them from light for 45 min. The antibodies were removed, and the wells were washed with PBS (5 × 150 µL); cells were then stored with PBS (100 µL per well) at 4 °C pending analysis.
# Plates were analyzed on an INcell Analyzer 2200 (Cytiva Life Sciences, Marlborough, MA, USA) using both laser autofocus (10%) and software autofocus modes, with ten random images per well covering a minimum of 80% of the well at 10x magnification. Non-morphologically affected inclusions were counted using a macro in ImageJ (v1.54f), and MIC was defined as being one two-fold dilution more concentrated than MICTP (where MICTP is defined as the lowest concentration to produce ≥90% morphologically abnormal inclusions) relative to solvent controls.
# [2] = biological target: T1, CtHtrA (Chlamydia trachomatis serovar D, UniProt P18584); assay: CtHtrA protease inhibition assay; type: biochemical; settings: for Relative Potency against CtHtrA: [IC50 of control]/[IC50 test compound]; for IC50: IC50 against CtHtrA; for Relative Selectivity: (relative CtHtrA potency)/(relative HLE potency)
# T1 construct: made in house; host or cells: E. coli BL21(DE3), pET22b
# Procedure: The inhibitory activity of compounds 2a–g against CtHtrA was evaluated. […] As these compounds are reportedly covalent inhibitors of serine proteases, a true IC50 is unable to be calculated. Instead, the residual activity of the protease is monitored over time in response to a range of compound concentrations, and an IC50 value is interpolated from a dose–response curve (see Figures S2–S4 and Tables S1 and S2). This IC50 value is then compared to a positive control (JO146 was used for 2a–g, and 2g was used for 6a–h), giving the ‘relative potency’. This is the established method for assessing CtHtrA inhibitory potency. […] This effect may be due to depth restrictions within the S1 subpocket, as kinetic studies on the rates of protease inhibition in HLE were reduced by larger C-3 alkoxy substituents. Chain branching (iso-propyl and sec-butyl substituents) increased the activity, resulting in a 1.4-fold increase for 2e over 2b and a 2.8-fold improvement for 2g over 2c.
# CtHtrA was expressed using an procedure adapted from the literature. Recombinant E. coli BL21(DE3) pET22b was grown in LB media containing 100 ug/mL ampicillin to an OD600 of 0.5-0.6 in 5 × 400 mL batches at 37 °C. Isopropyl β-D-1-thioglactopyranoside (1 M, 400 µL, 1 mM final concentration) was added to each flask and incubated at 30 °C with shaking at 150 rpm for an additional 2.5 h. The culture was centrifuged at 4000× g for 15 min at 4 °C, and the cell pellet was harvested and resuspended in lysis buffer (50 mM phosphate, 10 mM imidazole, 500 mM NaCl, 0.1% Triton X-100, 10% glycerol). Lysozyme was added to the suspended cells and was sonicated in 15 cycles of 15 s, with one minute between cycles while maintaining 4 °C, and then centrifuged at 8000× g for 20 min to remove any debris, retaining the supernatant for protein purification.
# TALON® metal affinity resin (Takara cat no. 635652, 5 mL) was added to each lysate tube and washed sequentially with lysis buffer (2 × 45 mL) and stringency buffer (4 × 45 mL) and then eluted with elution buffer (2 × 5 mL), allowing incubations at 4 °C for 20 min per wash, and centrifuging at 2500× g and 4 °C between washes to pellet the resin. The eluates were dialyzed in Tris buffer (pH 7.0, 50 mM, 4 L) with magnesium chloride (20 mM) at 4 °C five times over 24 h, with a minimum of three hours per dialysis change. Protein expression and isolation were confirmed with SDS-PAGE Coomassie stained gel, which was examined for the band at the correct size, and a BCA assay to confirm purified protein concentration prior to use.
# CtHtrA was added to 25 wells in a black 96-well plate (40–80 µL, 10 µL increments), to which Tris-HCl buffer (50 mM, pH 7.0 with 20 mM MgCl2) was added to bring the total volume to 90 µL for 10 wells and 85 µL for the remaining 15. JO146 (10 µM, 5 µL) was added to 5 wells and JO146 (1 µM, 5 µL) was added to another 5 wells, with DMSO (5 µL) being added to the remaining 5 as a control. The plate was incubated at 37 °C for 10 min before substrate (MCA-ENLHLPLPIIFK-DNP, 10 µL, 1 mg/mL, 50% isopropanol in buffer) was added and analyzed in a TECAN Infinite Pro M200 plate reader with an excitation wavelength of 340 nm and fluorescence measured at 405 nm with four reads per well at 60 s intervals. A minimum volume of CtHtrA granting a fluorescence change of 300 min^−1 was used for subsequent assay.
# The determined appropriate volume of CtHtrA in buffer was added to a 96-well non-transparent black plate and diluted to 85 µL with buffer solution. Drug or control (5 µL) at a maximum of 20% DMSO/80% buffer was added to the appropriate well with DMSO controls, and the plate was incubated for 10 min to allow activation by the protein. MCA-ENLHLPLPIIFK-DNP (Mimotopes, Australia, 1 mg/mL, 10 µL) was added and immediately monitored on a TECAN M200 Infinite plate reader at 37 °C every 60 s for 30 min, using the same wavelengths as for the activity evaluation. […]
# [3] = biological target: T2, Human Leukocyte Elastase (HLE) (Homo sapiens, UniProt P08246); parameters: method as in PMID 3910097; settings: cited from earlier work
# T2 construct: purchased Athens Research and Technology 16-15-051200
# T2 sequence (P08246 30-247 limits assumed): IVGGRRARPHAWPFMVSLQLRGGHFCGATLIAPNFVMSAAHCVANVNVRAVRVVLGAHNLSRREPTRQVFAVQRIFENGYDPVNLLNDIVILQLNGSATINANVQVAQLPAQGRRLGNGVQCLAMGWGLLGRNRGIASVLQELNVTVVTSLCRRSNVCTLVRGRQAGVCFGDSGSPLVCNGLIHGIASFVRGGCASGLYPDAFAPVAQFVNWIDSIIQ
# [4] = biological target: T2, Human Leukocyte Elastase (HLE); assay: HLE protease inhibition assay; type: biochemical; settings: for IC50: Table S1, variable slope four parameter fit, read-out: IC50 against HLE; for Relative Potency against HLE: [IC50 of JO146]/[IC50 test compound]
# Procedure: Elastase was purchased from Athens Research and Technology (Cat No. 16-15-051200). Elastase (100 µg) was dissolved in Tris buffer (100 mM Tris, 20 mM CaCl2, pH 8.1, 3.14 mL), giving a concentration of 1.117 µM, and 25 µL was added to each well containing the respective inhibitor. The plate was incubated at 37 °C for 15 min.
# N-Suc-AAA-pNA (Sigma Aldrich, Bayswater, Australia, S4760, 100 µL, 1 mg/mL, […]) was added to each well, and the absorbance was monitored every six minutes at 405 nm. The rate of change of absorbance was used as a comparison to controls to determine the % inhibition of protein in Microsoft Excel^TM (v2402), and these values were exported to GraphPad Prism (v8.0.1) for IC50 calculation.
# [5] = Table S2, Batch 1, control JO146
# [6] = Table S2, Batch 2, control JO146
# T1 sequence (P18584 17-497): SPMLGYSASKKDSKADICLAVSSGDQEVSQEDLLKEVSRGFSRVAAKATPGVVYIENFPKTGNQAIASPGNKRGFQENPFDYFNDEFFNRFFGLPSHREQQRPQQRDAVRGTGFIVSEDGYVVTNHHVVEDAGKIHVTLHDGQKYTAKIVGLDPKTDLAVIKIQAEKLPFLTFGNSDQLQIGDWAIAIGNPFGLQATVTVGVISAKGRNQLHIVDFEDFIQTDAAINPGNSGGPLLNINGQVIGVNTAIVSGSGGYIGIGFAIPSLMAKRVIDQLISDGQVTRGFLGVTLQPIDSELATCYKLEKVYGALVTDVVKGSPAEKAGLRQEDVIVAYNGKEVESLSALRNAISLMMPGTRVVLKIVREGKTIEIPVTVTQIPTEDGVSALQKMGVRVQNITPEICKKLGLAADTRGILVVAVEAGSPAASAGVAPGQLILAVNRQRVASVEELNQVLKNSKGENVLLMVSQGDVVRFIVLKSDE
Compound,Relative Selectivity [2],"IC50 [2, 5]",Relative Potency against CtHtrA ([2]; control JO146),IC50 [4],Relative Potency against HLE [4],further results
"CCC(C)Oc1oc(=O)c2cc(Br)ccc2c1Cl (racemic) [Compound 6f, (±)-7-Bromo-3-sec-butoxy-4-chloro-isocoumarin]",–,–,–,–,–,anti-chlamydial activity against C. trachomatis [1]: abolished observable activity; Relative Potency against CtHtrA ([2]; control 2g): 0.057
"CCC(C)Oc1oc(=O)c2cc(Cl)ccc2c1Cl (racemic) [Compound 6g, (±)-3-sec-Butoxy-4,7-dichloro-isocoumarin]",–,–,–,–,–,"anti-chlamydial activity against C. trachomatis [1]: did not significantly affect the efficacy of 2g; statistical significance of anti-chlamydial activity ([1]; relative to solvent controls): statistically significant anti-chlamydial activity; IC50 ([2]; Table S2, Batch 5, control 2g): 71.8 µM; Relative Potency against CtHtrA ([2]; control 2g): 0.390"
"O=c1oc(Cl)c(Cl)c2ccccc12 [3,4-dichloroisocoumarin]",–,–,–,–,–,molecular turnover against HLE [3]: 3.1
"CCOc1oc(=O)c2ccccc2c1Cl [Compound 2b, 3-Ethoxy-4-chloroisocoumarin]",56.4,19.1 µM,3.73,12.3 µM,0.0664,–
"CCCOc1oc(=O)c2ccccc2c1Cl [Compound 2c, 3-Propoxy-4-chloroisocoumarin]",6.92,32 µM,2.23,2.53 µM,0.323,–
"CCCCOc1oc(=O)c2ccccc2c1Cl [Compound 2d, 3-Butoxy-4-chloroisocoumarin]",5.08,45.5 µM,1.57,2.64 µM,0.310,–
"CC(C)Oc1oc(=O)c2ccccc2c1Cl [Compound 2e, 3-iso-Propoxy-4-chloroisocoumarin]",12.7,–,5.32,1.95 µM,0.419,"fold increase in CtHtrA inhibitory activity ([2]; 2e over 2b): 1.4 fold; IC50 [2, 6]: 11.3 µM"
"CC(C)COc1oc(=O)c2ccccc2c1Cl [Compound 2f, 3-iso-Butoxy-4-chloroisocoumarin]",4.08,–,1.50,2.22 µM,0.368,"IC50 [2, 6]: 40 µM"
O=c1oc(Cl)cc2ccccc12 [Compound 3-choro-],–,–,–,–,–,molecular turnover against HLE [3]: 15
